Our source for the TGI values is PubChem BioAssay (NCI).

Some test systems named below: A498 renal; BT-549 breast; DU-145 prostate; HOP-92 NSCLC; HT29 colon; IGROV1 ovarian; NCI-H23 lung; OVCAR-3 ovarian; OVCAR-4 ovarian; SF-539 CNS; SK-MEL-2 melanoma; SK-OV-3 ovarian; SNB-19 CNS; T-47D breast; U251 CNS; UO-31 renal.
Holding throughout (test): NCI tumour cell line growth inhibition, 48 h

SMILES strings stand for the structures.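 Cells were grown in 96-well plates and exposed to each compound for 48 hours at five concentrations; endpoints were interpolated linearly between bracketing concentrations, or set to the highest concentration if not reached. Definition used: TGI = concentration required for complete inhibition of growth.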

`CC(=O)NC1C(OCc2ccccc2)OC(CO)C(O)C1OCC(=O)NC(C(=O)NC(CCC(=O)NCCCCCC(=O)Nc1ccc2c(c1)CN1C(=O)c3ccccc3C1=N2)C(N)=O)C(C)C` (stereo not drawn): the TGI was 73.7 µM in the experiment on A498 renal; 48.1 µM in the experiment on BT-549 breast; more than 100 µM with DU-145 prostate; more than 100 µM with HOP-92 NSCLC; more than 100 µM in the experiment with HT29 colon; 50.4 µM in the experiment on IGROV1 ovarian. The TGI in the experiment on NCI-H23 lung was more than 100 µM; in the experiment with OVCAR-3 ovarian, more than 100 µM; in the experiment with OVCAR-4 ovarian it was 53 µM; with SF-539 CNS, 37.7 µM; in the experiment on SK-MEL-2 melanoma, 64.8 µM; with SK-OV-3 ovarian, 44.6 µM. Further, the TGI in the experiment with SNB-19 CNS is 47.7 µM; with T-47D breast, 68 µM; in the experiment with U251 CNS, 39.2 µM; with UO-31 renal it was more than 100 µM.

Turning to `c1ccc2c(c1)nc1ccccn12`, the TGI with A498 renal was 29.5 µM; in the experiment with BT-549 breast, more than 100 µM; in the experiment on DU-145 prostate, more than 100 µM; in the experiment with HOP-92 NSCLC it was more than 100 µM; in the experiment on HT29 colon, more than 100 µM; with IGROV1 ovarian, more than 100 µM. Also, the TGI with NCI-H23 lung, with OVCAR-3 ovarian, in the experiment on SF-539 CNS, in the experiment on SK-OV-3 ovarian, in the experiment on SNB-19 CNS and in the experiment with T-47D breast was more than 100 µM each time. For the same molecule, the TGI with U251 CNS and in the experiment with UO-31 renal was more than 100 µM in each case.

With `COc1ccc2nc3c4c(nccc4c2c1)-c1ncccc1C3=O`, the TGI stood at 0.224 µM in the experiment with A498 renal; 0.528 µM with BT-549 breast; 0.023 µM in the experiment on DU-145 prostate; 12.3 µM in the experiment with HOP-92 NSCLC; 1.14 µM with HT29 colon; 0.279 µM with IGROV1 ovarian. Also, the TGI is 0.265 µM in the experiment with NCI-H23 lung; 0.0569 µM in the experiment on OVCAR-3 ovarian; 2.01 µM in the experiment with OVCAR-4 ovarian; 0.56 µM in the experiment with SF-539 CNS; 1.43 µM in the experiment with SK-MEL-2 melanoma; 0.386 µM in the experiment on SK-OV-3 ovarian. The TGI in the experiment with SNB-19 CNS amounted to 0.279 µM; in the experiment on T-47D breast, 4.81 µM; in the experiment on U251 CNS, 1.75 µM; in the experiment with UO-31 renal it was 0.706 µM.

For the molecule `CCOC(=O)c1c2ccccc2n2c(=O)n(-c3ccc(OC)cc3)nnc12`, the TGI with A498 renal is more than 100 µM; in the experiment on BT-549 breast, more than 80.7 µM; in the experiment with DU-145 prostate, more than 100 µM; in the experiment with HOP-92 NSCLC, more than 65.7 µM; in the experiment with IGROV1 ovarian, more than 100 µM; in the experiment with NCI-H23 lung, more than 81.5 µM. Besides, the TGI in the experiment with OVCAR-3 ovarian is more than 91.1 µM; in the experiment on OVCAR-4 ovarian, more than 64 µM; in the experiment with SF-539 CNS, 45.6 µM; in the experiment with SK-MEL-2 melanoma, more than 100 µM; in the experiment on SK-OV-3 ovarian, more than 63.9 µM; with SNB-19 CNS, more than 79.9 µM. The TGI was 92.7 µM in the experiment on T-47D breast, more than 31.6 µM in the experiment with U251 CNS and more than 100 µM in the experiment on UO-31 renal.

As for `O=C(c1ccccc1)c1ccc(N2C(=O)/C(=C/c3ccccc3S)N=C2c2ccccc2)c(N2C(=O)/C(=C/c3ccccc3S)N=C2c2ccccc2)c1`, the TGI in the experiment with A498 renal, in the experiment with BT-549 breast, in the experiment on DU-145 prostate, in the experiment on HOP-92 NSCLC, in the experiment on HT29 colon and with IGROV1 ovarian was more than 100 µM each time. The TGI is 51.2 µM in the experiment on OVCAR-3 ovarian; more than 100 µM in the experiment with OVCAR-4 ovarian; 40.3 µM in the experiment on SF-539 CNS; 57.3 µM in the experiment on SK-MEL-2 melanoma; more than 100 µM in the experiment on SK-OV-3 ovarian; more than 100 µM in the experiment with SNB-19 CNS. For the same molecule, the TGI with T-47D breast, with U251 CNS and with UO-31 renal was more than 100 µM throughout.

As to `Cc1cn(CC(=S)NCCc2c[nH]c3ccccc23)c(=O)[nH]c1=O`, the TGI in the experiment with A498 renal, in the experiment on BT-549 breast, in the experiment with DU-145 prostate, in the experiment with HOP-92 NSCLC, with HT29 colon and with IGROV1 ovarian was more than 100 µM in each case. Besides, the TGI in the experiment with NCI-H23 lung, with OVCAR-3 ovarian, in the experiment on OVCAR-4 ovarian, in the experiment with SF-539 CNS, in the experiment with SK-MEL-2 melanoma and with SK-OV-3 ovarian was more than 100 µM throughout. The TGI in the experiment with SNB-19 CNS, with T-47D breast, with U251 CNS and in the experiment with UO-31 renal was more than 100 µM each time.

As to `CC1=CC2(C)C=C[C@@H]1C(=O)[C@@]1(C)CC[C@@](O)(C(C)C)[C@H]1CC2`, the TGI came to 45.6 µM in the experiment on A498 renal; 60.7 µM in the experiment with BT-549 breast; 72.1 µM in the experiment with DU-145 prostate; 28.2 µM in the experiment with HOP-92 NSCLC; 32.6 µM with HT29 colon; 51.7 µM with IGROV1 ovarian. In addition, the TGI is 50.4 µM in the experiment with NCI-H23 lung; 32.2 µM with OVCAR-3 ovarian; 38.2 µM with OVCAR-4 ovarian; 35 µM in the experiment with SF-539 CNS; 77 µM with SK-MEL-2 melanoma; 54.6 µM in the experiment on SK-OV-3 ovarian. For the same molecule, the TGI in the experiment on SNB-19 CNS came to 65.7 µM; with T-47D breast it was 88 µM; in the experiment with U251 CNS it was 33.1 µM; in the experiment with UO-31 renal, 31.4 µM.
